The text below walks through data of patent publication US9340577B2, “HLA binding motifs and peptides and their uses” (priority 1992, dated 2016).

pIC50: −log10 of the molar value. No end group written: not given here.

Experiment in all cases: biochemical
The target in one assay is DRB1*1302 (Homo sapiens, UniProt P01903+P01911, A100E/A169T/K41T/L162R/M171V/P40S/Q125H/Q178H/Q39Y/Q99D/R42S/S66N/T262R/V115G/W38E/Y61H). Type of assay: binding.
The target of another assay is DRB1*1501 (Homo sapiens, UniProt P01903+P01911). Type of assay: binding.
The target of another assay is DRB5*0101 (Homo sapiens, UniProt P01903+Q30154). To be noted: Binding affinity DRB5 *0101.
A further assay addresses DRB1*0405 (Homo sapiens, UniProt P01903+P01911, A100R/A169T/D86S/F76Y/I96L/K127E/L162R/M171V/N62H/P40V/Q125Y/R42H/S133A/S149N/S66Y/V115G/V209L/W38E). Type of assay: binding.
Another assay deals with DR7 (DRB1*0701) (Homo sapiens, UniProt P01903+P01911, A100R/A102G/A103Q/D57E/D86V/E43K/F76Y/K127E/L162R/M171V/P40G/Q125H/Q99D/R33Q/R42Y/R54Q/S133A/S66F/T210M/V115G/Y107V/Y59L/Y89S). Type of assay: binding.
The target of a further assay is DRB1*1101 (Homo sapiens, UniProt P01903+P01911, A100R/A169T/A87E/I96F/K41T/L162R/M171V/P40S/Q125H/Q178H/Q39Y/Q99D/R42S/S66Y/T262R/V115G/W38E). The settings on record: Binding affinity DRB1 *1101.
The next assay addresses DRB1*0301 (Homo sapiens, UniProt P01903+P01911, A100K/A102G/A103R/A169T/F55Y/I96L/K41T/L162R/M171V/P40S/Q125H/Q178H/Q39Y/R42S/S66N/T106N/T262R/W38E/Y61H). Type of assay: binding.
A further assay has as its target DRB1*0901 (Homo sapiens, UniProt P01903+P01911, A100R/A103E/D57H/D86V/F55Y/F60I/F76Y/I96F/K127E/L162R/M171V/P40D/Q125H/Q99R/R33Q/R42F/S133A/S66N/T210M/V115G/W38K/Y107V/Y59G/Y89S). Type of assay: binding.
A further assay deals with DRB1*0802 (Homo sapiens, UniProt P01903+P01911, A100R/A103L/A169T/F76Y/H45Y/I96F/K41T/L162R/M171V/P40S/Q125H/Q178H/Q39Y/Q99D/R218S/R42G/S66Y/V115G/W38E). It is filed as binding.
For another assay, the target named is DRB4*0101 (Homo sapiens, UniProt P01903+P13762, G164S). It is filed as binding.
The target in another assay is DR4w4 (DRB1*0401) (Homo sapiens, UniProt P01903+P01911, A100K/A169T/F76Y/I96L/K127E/L162R/M171V/N62H/P40V/Q125Y/R42H/S133A/S149N/S66Y/V115G/V209L/W38E). Type of assay: binding.
The target in a further assay is DR1 (DRB1*0101) (Homo sapiens, UniProt P01903+P01911, A100R/D57E/F55L/F60I/F76Y/I96L/L162R/M171V/P40L/Q125E/R42F/V115G/Y59C). Type of assay: binding.

As usually defined, the pIC50 is the IC50 on a negative log10 scale, so that one unit is a factor of ten. Low values mean a high IC50, high ones a low IC50.

Sequence of DRB1*1302 (P01903 26-254 limits assumed, other chains not shown): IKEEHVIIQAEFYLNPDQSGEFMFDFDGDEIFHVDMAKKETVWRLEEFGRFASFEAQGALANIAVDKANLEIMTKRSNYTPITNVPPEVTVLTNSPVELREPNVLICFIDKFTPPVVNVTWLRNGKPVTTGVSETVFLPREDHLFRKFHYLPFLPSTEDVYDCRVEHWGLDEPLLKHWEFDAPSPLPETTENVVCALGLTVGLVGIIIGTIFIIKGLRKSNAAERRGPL
Sequence of DRB1*0301 (P01903 26-254 limits assumed, other chains not shown): as above
Sequence of DRB1*1101 (P01903 26-254 limits assumed, other chains not shown): as above

For KIGMIDDVTPISWTY [Peptide 90.0087], the pIC50 against DRB1*1302 is 8.01; at DRB1*1501, 5.35; at DRB5*0101 it was under 4.70; on DRB1*0405 it was under 4.70; at DR7 (DRB1*0701), under 4.70; at DRB1*1101, under 4.70. For the same sequence, the negative-log IC50 (pIC50) against DRB1*0301 was 7.15; at DRB1*0901 it was under 4.70; on DRB1*0802, 5.08; on DRB4*0101, 5.51; against DR4w4 (DRB1*0401) it was 7.70; against DR1 (DRB1*0101) it was 5.49.
With GQVIVCPASVSSNEV [Peptide 90.0016], the pIC50 is 7.03 against DRB1*1302; 6.34 on DRB1*1501; 5.06 on DRB5*0101; 7.25 on DR7 (DRB1*0701); 5.32 on DRB1*1101; 5.11 against DRB1*0301. For the same sequence, the negative logarithm of the IC50 (pIC50) is 6.71 at DRB1*0901, 6.71 against DRB4*0101, 7.19 against DR4w4 (DRB1*0401) and 7.62 at DR1 (DRB1*0101).
Regarding TAIFGVNPTIAEGFK [Peptide 89.0024], the pIC50 was 4.94 on DRB1*1501; 4.75 on DRB5*0101; 7.77 on DRB1*0405; 6.74 at DR7 (DRB1*0701); 5.39 at DRB1*1101; 6.43 against DRB1*0301. The pIC50 against DRB1*0901 was 5.35; on DRB1*0802, 4.96; on DRB4*0101, 6.23.
On to QHSFNDDIFDLSEMI [Peptide 90.0152], for which the pIC50 was 7.77 at DRB1*1302; 6.16 against DRB1*1501; 6.42 against DRB1*0405; 5.36 at DRB1*1101; 6.27 on DRB1*0301; 5.12 at DRB1*0802. Moreover, the pIC50 was 8.68 against DRB4*0101, 7.43 at DR4w4 (DRB1*0401) and 7.38 against DR1 (DRB1*0101).
In the case of VSKLMSQLLNIPETH [Peptide 89.0101], the pIC50 against DRB1*1302 is 5.02; on DRB1*1501, under 4.70; on DRB5*0101, under 4.70; at DR7 (DRB1*0701), under 4.70; at DRB1*1101, under 4.70; against DRB1*0301, 6.04. Further, the pIC50 against DRB1*0901 was under 4.70; at DRB1*0802 it was under 4.70; against DRB4*0101 it was under 4.70; on DR4w4 (DRB1*0401) it was 4.98; at DR1 (DRB1*0101), under 4.70.
Take EVQIALESLSTTIYN [Peptide 90.0231]: the pIC50 at DRB1*1302 was 8.37; on DRB5*0101, under 4.70; against DRB1*0405 it was 5.37; on DR7 (DRB1*0701) it was 7.49; at DRB1*1101, under 4.70; on DRB1*0301, 6.15. In addition, the pIC50 on DRB1*0901 was 6.39; on DRB1*0802 it was under 4.70; at DRB4*0101, 7.41; on DR4w4 (DRB1*0401), 5.89.
HWKLIRMECAIMYTA [Peptide 90.0021]: the pIC50 on DRB1*1302 is 7.27; against DRB1*1501, 5.42; at DRB5*0101 it was 5.51; against DRB1*0405, 7.08; on DR7 (DRB1*0701), 5.58; at DRB1*0301 it was 7.09. In addition, the pIC50 against DRB1*0802 is 4.85; against DRB4*0101 it was 6.79; against DR1 (DRB1*0101), 7.55.
As for KHIRLLECVLMYKARE [Peptide 1601.44], the negative logarithm of the IC50 (pIC50) was 6.38 on DRB1*1302; 7.13 against DRB1*1501; 5.79 on DRB5*0101; 6.63 against DRB1*0405; 5.17 on DR7 (DRB1*0701); 6.21 on DRB1*1101. For the same sequence, the pIC50 is 7.14 against DRB1*0301; 5.13 on DRB1*0901; 5.75 against DRB1*0802; 7.41 against DRB4*0101; 7.17 against DR4w4 (DRB1*0401); 6.92 on DR1 (DRB1*0101).
For IIHLKGDKNSLKCLR [Peptide 90.0218], the pIC50 against DRB1*1302 was 5.88; on DRB1*1501, 6.86; at DRB5*0101, 5.00; on DRB1*0405, 4.90; against DRB1*0301, 7.38; on DRB4*0101, 5.84. The sequence further had a pIC50 against DR4w4 (DRB1*0401) of 6.46.
Regarding LYGVSFMELIRPFQS [Peptide 89.0041], the pIC50 against DRB1*1302 was under 4.70; on DRB1*1501 it was 5.81; at DRB5*0101, 5.22; on DRB1*0405, 5.74; at DRB1*1101, 7.41; against DRB1*0301, under 4.70. The pIC50 against DRB1*0901 is 7.19; at DRB4*0101, 8.66; against DR4w4 (DRB1*0401), 5.28.
On to TPEWIERQTVLQHSF [Peptide 89.0048], for which the pIC50 against DRB1*1302 is 5.26; against DRB1*1501, 5.22; on DRB5*0101, under 4.70; against DR7 (DRB1*0701), under 4.70; on DRB1*0301, 7.47; against DRB1*0901 it was under 4.70. The values for the pIC50 on DRB4*0101, at DR4w4 (DRB1*0401) and against DR1 (DRB1*0101) were 7.72, 6.35 and 6.19, respectively.
Turning to AKLMSNLLSIPETCM [Peptide 89.0066], the negative logarithm of the IC50 (pIC50) against DRB1*1302 was 7.92; at DRB1*1501, 5.46; at DRB5*0101, under 4.70; on DRB1*0405 it was 7.47; against DR7 (DRB1*0701) it was 6.41; at DRB1*1101, 4.84. In addition, the pIC50 at DRB1*0301 is 4.89; against DRB1*0901, 5.04; against DRB1*0802 it was under 4.70; against DRB4*0101, 6.38; on DR4w4 (DRB1*0401), 7.00; at DR1 (DRB1*0101), 6.49.
With VMFLRYQGVEFMSFL [Peptide 89.0014], the pIC50 at DRB1*1501 is 7.52; on DRB5*0101 it was 6.15; on DRB1*0405 it was 6.20; against DR7 (DRB1*0701) it was 5.59; on DRB1*0301, 4.73; against DRB1*0901 it was 5.40. Also, the negative logarithm of the IC50 (pIC50) is 4.87 against DRB1*0802, 7.89 against DRB4*0101, 6.03 at DR4w4 (DRB1*0401) and 6.22 on DR1 (DRB1*0101).
Take AYGISFMELVRPFKS [Peptide 89.0060]: the pIC50 against DRB1*1302 was 5.35; at DRB5*0101, 5.52; at DRB1*0405, 5.37; at DRB1*1101, 7.29; at DRB1*0301, 5.15; against DRB1*0802 it was 6.80. Moreover, the values for the pIC50 against DRB4*0101, at DR4w4 (DRB1*0401) and at DR1 (DRB1*0101) were 7.51, 5.76 and 6.19, respectively.
Regarding ETCMLIQPPKLRSSV [Peptide 89.0029], the pIC50 against DRB1*1302 was 5.52; on DRB1*1501 it was 5.77; on DRB1*0405 it was 5.81; against DR7 (DRB1*0701), 6.45; on DRB1*0301 it was under 4.70; at DRB1*0901, 4.71. Besides, the pIC50 at DRB1*0802 is 5.29; at DRB4*0101 it was 7.09; against DR4w4 (DRB1*0401), 6.05; at DR1 (DRB1*0101), 7.22.
On to AFQVIELQMALETLS [Peptide 89.0181], for which the pIC50 was under 4.70 at DRB1*1501; 5.77 on DRB5*0101; 6.60 on DRB1*0405; 5.67 on DRB1*1101; 7.48 against DRB1*0301; 5.09 against DRB1*0802. The negative-log IC50 (pIC50) was 6.46 at DRB4*0101, 7.21 at DR4w4 (DRB1*0401) and 5.51 against DR1 (DRB1*0101).
VMAIFGVNPTVAEGF [Peptide 89.0080]: the pIC50 on DRB1*1302 is 7.48; on DRB5*0101 it was 4.71; on DRB1*0405 it was 7.77; at DR7 (DRB1*0701), 6.47; at DRB1*1101 it was 5.25; on DRB1*0301, 6.16. Further, the pIC50 was 4.89 on DRB1*0901; under 4.70 against DRB1*0802; 7.10 on DRB4*0101; 7.11 at DR4w4 (DRB1*0401); 6.72 on DR1 (DRB1*0101).
